Measurements as given in US20170349593A1, “BTK INHIBITORS” (MERCK SHARP & DOHME CORP., priority 2014, published 2017).

Assays:
[1] = biological target: T1, BTK enzyme (recombinant full-length BTK, hBTK) (Homo sapiens, UniProt Q06187); test: Btk enzyme activity assay (LANCE TR-FRET); format: biochemical; conditions: 50 pM hBTK, 25 μM ATP, 60 minute compound and enzyme incubation, concentration range 1 μM to 0.017 nM, read-out: BTK binding IC50
T1 construct: recombinant protein from baculovirus-transfected S 19 cells: full-length BTK, 6 HIS-tag cleaved; 6 HIS-tag (cleaved yes); made in house
T1 sequence (Q06187 whole entry): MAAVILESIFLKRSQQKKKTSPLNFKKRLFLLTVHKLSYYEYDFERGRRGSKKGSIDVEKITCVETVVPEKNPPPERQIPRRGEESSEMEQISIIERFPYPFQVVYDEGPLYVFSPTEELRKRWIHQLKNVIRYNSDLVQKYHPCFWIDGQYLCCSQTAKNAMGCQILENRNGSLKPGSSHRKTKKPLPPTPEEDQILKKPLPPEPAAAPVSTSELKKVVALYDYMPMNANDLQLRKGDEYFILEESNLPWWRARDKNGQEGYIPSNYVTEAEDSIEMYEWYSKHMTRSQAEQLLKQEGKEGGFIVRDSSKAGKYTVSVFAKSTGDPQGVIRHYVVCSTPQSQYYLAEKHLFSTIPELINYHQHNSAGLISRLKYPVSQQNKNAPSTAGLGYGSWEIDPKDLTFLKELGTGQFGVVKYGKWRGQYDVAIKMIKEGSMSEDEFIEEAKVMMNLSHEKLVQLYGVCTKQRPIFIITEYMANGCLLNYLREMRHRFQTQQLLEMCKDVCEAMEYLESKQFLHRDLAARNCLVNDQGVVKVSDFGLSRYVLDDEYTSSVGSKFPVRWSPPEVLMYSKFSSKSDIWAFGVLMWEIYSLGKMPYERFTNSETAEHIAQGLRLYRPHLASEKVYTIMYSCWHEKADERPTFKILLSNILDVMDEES

[2] = system: adenosine uptake into HeLa cells; test: [3H]Adenosine uptake assay; format: cell-based; conditions: Homo sapiens; accumulation of [3H]adenosine into HeLa cells; concentration range 10 μM to 0.032 nM; read-out: ADU inhibition IC50
Outline: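 HeLa cells (25 000/well), plated overnight, were preincubated 30 minutes at ambient temperature with compound in HBSS + 5% FBS. Ten-point titrations ran from 10 μM to 0.032 nM final. [3H]adenosine was added from a 500 nM solution for 60 minutes, and uptake was measured by scintillation proximity counting; IC50 came from a 4-parameter fit.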

IC50 [1] [nM] | IC50 [2] [nM] | Structure (SMILES)
0.626 | 383 | C[C@H]1CO[C@@H](c2nc(-c3ccc(C(=O)Nc4cc(C(F)(F)F)ccn4)cc3F)c3c(N)ncc(Cl)n23)CN1C(=O)C1CC1 [Example 41, 4-{8-amino-5-chloro-3-[(2R,5S)-4-(cyclopropylcarbonyl)-5-methylmorpholin-2-yl]imidazo[1,5-a]pyrazin-1-yl}-3-fluoro-N-[4-(trifluoromethyl)pyridin-2-yl]benzamide]
0.4 | 364 | C[C@H](O)C(=O)N1C[C@H](c2nc(-c3ccc(C(=O)Nc4cc(C(F)(F)F)ccn4)cc3F)c3c(N)ncc(Cl)n23)OC[C@@H]1C [Example 42, 4-(8-amino-5-chloro-3-{(2R,5S)-4-[(2S)-2-hydroxypropanoyl]-5-methylmorpholin-2-yl}imidazo[1,5-a]pyrazin-1-yl)-3-fluoro-N-[4-(trifluoromethyl)pyridin-2-yl]benzamide]
0.784 | 562 | C[C@H]1CO[C@@H](c2nc(-c3ccc(C(=O)Nc4cc(C(F)(F)F)ccn4)cc3)c3c(N)ncc(Cl)n23)CN1C(=O)C1CC1 [Example 43, 4-{8-amino-5-chloro-3-[(2R,5S)-4-(cyclopropylcarbonyl)-5-methylmorpholin-2-yl]imidazo[1,5-a]pyrazin-1-yl}-N-[4-(trifluoromethyl)pyridin-2-yl]benzamide]
0.358 | 362 | C[C@H]1CO[C@@H](c2nc(-c3ccc(C(=O)Nc4cc(C5CC5)ccn4)cc3F)c3c(N)ncc(Cl)n23)CN1C1CCOCC1 [Example 44, 4-{8-amino-5-chloro-3-[(2R,5S)-5-methyl-4-(tetrahydro-2H-pyran-4-yl)morpholin-2-yl]imidazo[1,5-a]pyrazin-1-yl}-N-(4-cyclopropylpyridin-2-yl)-3-fluorobenzamide]
0.68 | 512 | C[C@H](O)C(=O)N1C[C@H](c2nc(-c3ccc(C(=O)Nc4cc(C(F)(F)F)ccn4)cc3)c3c(N)ncc(Cl)n23)OC[C@@H]1C [Example 45, 4-(8-amino-5-chloro-3-{(2R,5S)-4-[(2S)-2-hydroxypropanoyl]-5-methylmorpholin-2-yl}imidazo[1,5-a]pyrazin-1-yl)-N-[4-(trifluoromethyl)pyridin-2-yl]benzamide]
1.94 | 2160 | COc1cc(C(=O)Nc2cc(C(F)(F)F)ccn2)ccc1-c1nc([C@H]2CN(C3CCOCC3)[C@@H](C)CO2)n2c(Cl)cnc(N)c12 [Example 46, 4-{8-amino-5-chloro-3-[(2R,5S)-5-methyl-4-(tetrahydro-2H-pyran-4-yl)morpholin-2-yl]imidazo[1,5-a]pyrazin-1-yl}-3-methoxy-N-[4-(trifluoromethyl)pyridin-2-yl]benzamide]
5.59 | 6090 | COc1cc(C(=O)Nc2cc(C(F)(F)F)ccn2)ccc1-c1nc([C@H]2CN(C(=O)C3CC3)[C@@H](C)CO2)n2c(Cl)cnc(N)c12 [Example 47, 4-{8-amino-5-chloro-3-[(2R,5S)-4-(cyclopropylcarbonyl)-5-methylmorpholin-2-yl]imidazo[1,5-a]pyrazin-1-yl}-3-methoxy-N-[4-(trifluoromethyl)pyridin-2-yl]benzamide]
0.303 | 397 | C[C@H]1CO[C@@H](c2nc(-c3ccc(C(=O)Nc4cc(C(F)(F)F)ccn4)cc3F)c3c(N)ncc(Cl)n23)CN1C1CCOCC1 [Example 48, 4-{8-amino-5-chloro-3-[(2R,5S)-5-methyl-4-(tetrahydro-2H-pyran-4-yl)morpholin-2-yl]imidazo[1,5-a]pyrazin-1-yl}-3-fluoro-N-[4-(trifluoromethyl)pyridin-2-yl]benzamide]
1.74 | 1780 | COc1cc(C(=O)Nc2cc(C(F)(F)F)ccn2)ccc1-c1nc([C@H]2CN(C(=O)C3CCOCC3)[C@@H](C)CO2)n2ccnc(N)c12 [Example 49, 4-{8-amino-3-[(2R,5S)-5-methyl-4-(tetrahydro-2H-pyran-4-ylcarbonyl)morpholin-2-yl]imidazo[1,5-a]pyrazin-1-yl}-3-methoxy-N-[4-(trifluoromethyl)pyridin-2-yl]benzamide]
2.17 | 2260 | COCCC(=O)N1C[C@H](c2nc(-c3ccc(C(=O)Nc4cc(C(F)(F)F)ccn4)cc3OC)c3c(N)nccn23)OC[C@@H]1C [Example 50, 4-{8-amino-3-[(2R,5S)-4-(3-methoxypropanoyl)-5-methylmorpholin-2-yl]imidazo[1,5-a]pyrazin-1-yl}-3-methoxy-N-[4-(trifluoromethyl)pyridin-2-yl]benzamide]
4.31 | 1410 | COc1cc(C(=O)Nc2cc(C(F)(F)F)ccn2)ccc1-c1nc([C@H]2CN(C(=O)[C@H](C)OC)[C@@H](C)CO2)n2ccnc(N)c12 [Example 51, 4-(8-amino-3-{(2R,5S)-4-[(2S)-2-methoxypropanoyl]-5-methylmorpholin-2-yl}imidazo[1,5-a]pyrazin-1-yl)-3-methoxy-N-[4-(trifluoromethyl)pyridin-2-yl]benzamide]
2.26 | 1990 | COc1cc(C(=O)Nc2cc(C(F)(F)F)ccn2)ccc1-c1nc([C@H]2CN(C(=O)[C@H](C)O)[C@@H](C)CO2)n2ccnc(N)c12 [Example 52, 4-(8-amino-3-{(2R,5S)-4-[(2S)-2-hydroxypropanoyl]-5-methylmorpholin-2-yl}imidazo[1,5-a]pyrazin-1-yl)-3-methoxy-N-[4-(trifluoromethyl)pyridin-2-yl]benzamide]
5.8 | 1030 | COc1cc(C(=O)Nc2cc(C(F)(F)F)ccn2)ccc1-c1nc([C@H]2CN(Cc3[nH]cnc3C)[C@@H](C)CO2)n2ccnc(N)c12 [Example 53, 4-(8-amino-3-{(2R,5S)-5-methyl-4-[(4-methyl-1H-imidazol-5-yl)methyl]morpholin-2-yl}imidazo[1,5-a]pyrazin-1-yl)-3-methoxy-N-[4-(trifluoromethyl)pyridin-2-yl]benzamide]
2.28 | 1650 | COc1cc(C(=O)Nc2cc(C(F)(F)F)ccn2)ccc1-c1nc([C@H]2CN(Cc3cnn(C)c3)[C@@H](C)CO2)n2ccnc(N)c12 [Example 54, 4-(8-amino-3-{(2R,5S)-5-methyl-4-[(1-methyl-1H-pyrazol-4-yl)methyl]morpholin-2-yl}imidazo[1,5-a]pyrazin-1-yl)-3-methoxy-N-[4-(trifluoromethyl)pyridin-2-yl]benzamide]
2.54 | 2060 | COc1cc(C(=O)Nc2cc(C(F)(F)F)ccn2)ccc1-c1nc([C@H]2CN(C3COC3)[C@@H](C)CO2)n2ccnc(N)c12 [Example 55, 4-{8-amino-3-[(2R,5S)-5-methyl-4-oxetan-3-ylmorpholin-2-yl]imidazo[1,5-a]pyrazin-1-yl}-3-methoxy-N-[4-(trifluoromethyl)pyridin-2-yl]benzamide]
26.7 | 1020 | C[C@H]1CO[C@@H](c2nc(-c3ccc(C(=O)Nc4ccccn4)cc3)c3c(N)nccn23)CN1C1CCOCC1 [Example 57, 4-{8-amino-3-[(2R,5S)-5-methyl-4-(tetrahydro-2H-pyran-4-yl)morpholin-2-yl]imidazo[1,5-a]pyrazin-1-yl}-N-pyridin-2-ylbenzamide]
1.57 | 1620 | COc1cc(C(=O)Nc2cc(C(F)(F)F)ccn2)ccc1-c1nc([C@H]2CN(C3CCOCC3)[C@@H](C)CO2)n2ccnc(N)c12 [Example 60, 4-{8-amino-3-[(2R,5S)-5-methyl-4-(tetrahydro-2H-pyran-4-yl)morpholin-2-yl]imidazo[1,5-a]pyrazin-1-yl}-3-methoxy-N-[4-(trifluoromethyl)pyridin-2-yl]benzamide]
0.814 | 386 | C[C@H]1CO[C@@H](c2nc(-c3ccc(C(=O)Nc4cc(C5CC5)ccn4)cc3F)c3c(N)nccn23)CN1C1CCOCC1 [Example 61, 4-{8-amino-3-[(2R,5S)-5-methyl-4-(tetrahydro-2H-pyran-4-yl)morpholin-2-yl]imidazo[1,5-a]pyrazin-1-yl}-N-(4-cyclopropylpyridin-2-yl)-3-fluorobenzamide]
10.8 | 256 | C[C@H]1CO[C@@H](c2nc(-c3ccc(C(=O)Nc4ccccn4)cc3)c3c(N)nccn23)CN1C(=O)C1CC1 [Example 62, 4-{8-amino-3-[(2R,5S)-4-(cyclopropylcarbonyl)-5-methylmorpholin-2-yl]imidazo[1,5-a]pyrazin-1-yl}-N-pyridin-2-ylbenzamide]
5.28 | 48.5 | Nc1nccn2c([C@H]3CN(C(=O)C4CC4)[C@H](CO)CO3)nc(-c3ccc(C(=O)Nc4cc(C(F)(F)F)ccn4)cc3F)c12 [Example 63, 4-{8-amino-3-[(2R,5R)-4-(cyclopropylcarbonyl)-5-(hydroxymethyl)morpholin-2-yl]imidazo[1,5-a]pyrazin-1-yl}-3-fluoro-N-[4-(trifluoromethyl)pyridin-2-yl]benzamide]
4.33 | 260 | Cn1cc(CN2C[C@H](c3nc(-c4ccc(C(=O)Nc5cc(C(F)(F)F)ccn5)cc4F)c4c(N)nccn34)OC[C@H]2CO)cn1 [Example 64, 4-(8-amino-3-{(2R,5R)-5-(hydroxymethyl)-4-[(1-methyl-1H-pyrazol-4-yl)methyl]morpholin-2-yl}imidazo[1,5-a]pyrazin-1-yl)-3-fluoro-N-[4-(trifluoromethyl)pyridin-2-yl]benzamide]
6.78 | 136 | Nc1nccn2c([C@H]3CN(C4CCOCC4)[C@H](CO)CO3)nc(-c3ccc(C(=O)Nc4cc(C(F)(F)F)ccn4)cc3F)c12 [Example 65, 4-{8-amino-3-[(2R,5R)-5-(hydroxymethyl)-4-(tetrahydro-2H-pyran-4-yl)morpholin-2-yl]imidazo[1,5-a]pyrazin-1-yl}-3-fluoro-N-[4-(trifluoromethyl)pyridin-2-yl]benzamide]
